Patent US11812767B2, “Beverage having Reb D and Reb M” (SUNTORY HOLDINGS LIMITED, priority 2018, dated 2023)

Experiments:
[1] = cited from earlier work
[2] = Degradation of Reb D and Reb M in phosphate buffer at 40° C. for 8 weeks, analysed by HPLC; assay type: physicochemical; conditions: for % Reb D degradation 2 weeks: 2 weeks at 40° C.; for % Reb D degradation 4 weeks: 4 weeks at 40° C.; for % Reb D degradation 6 weeks: 6 weeks at 40° C.; for % Reb D degradation 8 weeks: 8 weeks at 40° C.
Description: A study was carried out as follows, samples were prepared comprising 50 ppm, 150 ppm, 250 ppm and 400 ppm, of Reb D and samples with the following ratios of Reb D:Reb M 1:4, 1:1, 4:1 wherein the total concentration of the sample was 400 ppm. The samples were prepared in phosphate buffer and the pH was adjusted using phosphoric acid. Samples were prepared at the following pH; 2.0, 2.5, 3.0 and 3.5. These samples were incubated at 40° C. for 8 weeks. This incubation protocol should mimic the degradation at room temperature over 6 months. The amount of Reb D and Reb M in each sample at T=0 was calculated by HPLC this was then used to calculate the amount of remaining Reb M in each sample at each specified time point. Aliquots were taken at 2, 4, 6 and 8 weeks and analysed by HPLC to determine the degradation of Reb D and combinations of Reb D and Reb M over the 8 week study.

[3] = pH 2, Reb D 0.008 % w/w + Reb M 0.032 % w/w
[4] = pH 2, Reb D 0.02 % w/w + Reb M 0.02 % w/w
[5] = pH 2, Reb D 0.032 % w/w + Reb M 0.008 % w/w
[6] = pH 2.5, Reb D 0.005 % w/w alone
[7] = pH 2.5, Reb D 0.008 % w/w + Reb M 0.032 % w/w
[8] = pH 2.5, Reb D 0.015 % w/w alone
[9] = pH 2.5, Reb D 0.02 % w/w + Reb M 0.02 % w/w
[10] = pH 2.5, Reb D 0.025 % w/w alone
[11] = pH 2.5, Reb D 0.032 % w/w + Reb M 0.008 % w/w
[12] = pH 3, Reb D 0.008 % w/w + Reb M 0.032 % w/w
[13] = pH 3, Reb D 0.02 % w/w + Reb M 0.02 % w/w
[14] = pH 3, Reb D 0.032 % w/w + Reb M 0.008 % w/w
[15] = pH 3.5, Reb D 0.005 % w/w alone
[16] = pH 3.5, Reb D 0.008 % w/w + Reb M 0.032 % w/w
[17] = pH 3.5, Reb D 0.015 % w/w alone
[18] = pH 3.5, Reb D 0.02 % w/w + Reb M 0.02 % w/w
[19] = pH 3.5, Reb D 0.025 % w/w alone
[20] = pH 3.5, Reb D 0.032 % w/w + Reb M 0.008 % w/w

For C=C1C[C@@]23CC[C@H]4[C@@](C)(CCC[C@@]4(C)C(=O)O[C@@H]4O[C@H](CO)[C@@H](O)[C@H](O)[C@H]4O[C@@H]4O[C@H](CO)[C@@H](O)[C@H](O)[C@H]4O)[C@@H]2CC[C@]1(O[C@@H]1O[C@H](CO)[C@@H](O)[C@H](O[C@@H]2O[C@H](CO)[C@@H](O)[C@H](O)[C@H]2O)[C@H]1O[C@@H]1O[C@H](CO)[C@@H](O)[C@H](O)[C@H]1O)C3 [Reb D, rebaudioside D], the “Sweetness potency (relative to sucrose)” value [1] is given as 221, the “degradation of low concentration sample of Reb D versus higher concentration samples” value ([2]; across pH 2.0 to 3.5) is given as “degraded more quickly” and the “additional degradation of 50 ppm Reb D sample versus 80 ppm Reb D sample in combination with 320 ppm Reb M” value ([2]; pH 2.0) is given as “approx. 10%”. The “% Reb D degradation 2 weeks” value ([2]; pH 2, Reb D 0.005 % w/w alone) was 37%, the “% Reb D degradation 4 weeks” value ([2]; pH 2, Reb D 0.005 % w/w alone) was 73% and the “% Reb D degradation 6 weeks” value ([2]; pH 2, Reb D 0.005 % w/w alone) was 84%. For the same molecule, the “% Reb D degradation 8 weeks” value ([2]; pH 2, Reb D 0.005 % w/w alone) was 91%, the “% Reb D degradation 2 weeks” value [2, 3] was 36% and the “% Reb D degradation 4 weeks” value [2, 3] was 62%. The “% Reb D degradation 6 weeks” value [2, 3] was 76%, the “% Reb D degradation 8 weeks” value [2, 3] was 85% and the “% Reb D degradation 2 weeks” value ([2]; pH 2, Reb D 0.015 % w/w alone) was 28%. The “% Reb D degradation 4 weeks” value ([2]; pH 2, Reb D 0.015 % w/w alone) was 70%, the “% Reb D degradation 6 weeks” value ([2]; pH 2, Reb D 0.015 % w/w alone) was 82% and the “% Reb D degradation 8 weeks” value ([2]; pH 2, Reb D 0.015 % w/w alone) was 90%. For the same molecule, the “% Reb D degradation 2 weeks” value [2, 4] was 28%, the “% Reb D degradation 4 weeks” value [2, 4] was 59% and the “% Reb D degradation 6 weeks” value [2, 4] was 72%. The “% Reb D degradation 8 weeks” value [2, 4] was 82%, the “% Reb D degradation 2 weeks” value ([2]; pH 2, Reb D 0.025 % w/w alone) was 32% and the “% Reb D degradation 4 weeks” value ([2]; pH 2, Reb D 0.025 % w/w alone) was 68%. For the same molecule, the “% Reb D degradation 6 weeks” value ([2]; pH 2, Reb D 0.025 % w/w alone) was 81%, the “% Reb D degradation 8 weeks” value ([2]; pH 2, Reb D 0.025 % w/w alone) was 89% and the “% Reb D degradation 2 weeks” value [2, 5] was 37%. For the same molecule, the “% Reb D degradation 4 weeks” value [2, 5] was 63%, the “% Reb D degradation 6 weeks” value [2, 5] was 78% and the “% Reb D degradation 8 weeks” value [2, 5] was 86%. For the same molecule, the “% Reb D degradation 2 weeks” value ([2]; pH 2, Reb D 0.04 % w/w alone) was 32%, the “% Reb D degradation 4 weeks” value ([2]; pH 2, Reb D 0.04 % w/w alone) was 66% and the “% Reb D degradation 6 weeks” value ([2]; pH 2, Reb D 0.04 % w/w alone) was 79%. The “% Reb D degradation 8 weeks” value ([2]; pH 2, Reb D 0.04 % w/w alone) was 86%, the “degradation of Reb D samples which also contained Reb M versus Reb D samples alone (FIG. 4)” value ([2]; pH 2.0 and 2.5, averaged over samples) was “degraded less” and the “% Reb D degradation 2 weeks” value [2, 6] was 11%. For the same molecule, the “% Reb D degradation 4 weeks” value [2, 6] was 37%, the “% Reb D degradation 6 weeks” value [2, 6] was 44% and the “% Reb D degradation 8 weeks” value [2, 6] was 55%. For the same molecule, the “% Reb D degradation 2 weeks” value [2, 7] was 8%, the “% Reb D degradation 4 weeks” value [2, 7] was 28% and the “% Reb D degradation 6 weeks” value [2, 7] was 37%. The “% Reb D degradation 8 weeks” value [2, 7] was 42%, the “% Reb D degradation 2 weeks” value [2, 8] was 10% and the “% Reb D degradation 4 weeks” value [2, 8] was 32%. The “% Reb D degradation 6 weeks” value [2, 8] was 40%, the “% Reb D degradation 8 weeks” value [2, 8] was 50% and the “% Reb D degradation 2 weeks” value [2, 9] was 7%. The “% Reb D degradation 4 weeks” value [2, 9] was 25%, the “% Reb D degradation 6 weeks” value [2, 9] was 33% and the “% Reb D degradation 8 weeks” value [2, 9] was 42%. The “% Reb D degradation 2 weeks” value [2, 10] was 8%, the “% Reb D degradation 4 weeks” value [2, 10] was 27% and the “% Reb D degradation 6 weeks” value [2, 10] was 34%. For the same molecule, the “% Reb D degradation 8 weeks” value [2, 10] was 44%, the “% Reb D degradation 2 weeks” value [2, 11] was 5% and the “% Reb D degradation 4 weeks” value [2, 11] was 23%. The “% Reb D degradation 6 weeks” value [2, 11] was 33%, the “% Reb D degradation 8 weeks” value [2, 11] was 42% and the “% Reb D degradation 2 weeks” value ([2]; pH 2.5, Reb D 0.04 % w/w alone) was 7%. For the same molecule, the “% Reb D degradation 4 weeks” value ([2]; pH 2.5, Reb D 0.04 % w/w alone) was 25%, the “% Reb D degradation 6 weeks” value ([2]; pH 2.5, Reb D 0.04 % w/w alone) was 34% and the “% Reb D degradation 8 weeks” value ([2]; pH 2.5, Reb D 0.04 % w/w alone) was 43%. The “% Reb D degradation 2 weeks” value ([2]; pH 3, Reb D 0.005 % w/w alone) was 0%, the “% Reb D degradation 4 weeks” value ([2]; pH 3, Reb D 0.005 % w/w alone) was 17% and the “% Reb D degradation 6 weeks” value ([2]; pH 3, Reb D 0.005 % w/w alone) was 22%. The “% Reb D degradation 8 weeks” value ([2]; pH 3, Reb D 0.005 % w/w alone) was 29%, the “% Reb D degradation 2 weeks” value [2, 12] was 1% and the “% Reb D degradation 4 weeks” value [2, 12] was 17%. For the same molecule, the “% Reb D degradation 6 weeks” value [2, 12] was 22%, the “% Reb D degradation 8 weeks” value [2, 12] was 24% and the “% Reb D degradation 2 weeks” value ([2]; pH 3, Reb D 0.015 % w/w alone) was 0%. The “% Reb D degradation 4 weeks” value ([2]; pH 3, Reb D 0.015 % w/w alone) was 11%, the “% Reb D degradation 6 weeks” value ([2]; pH 3, Reb D 0.015 % w/w alone) was 16% and the “% Reb D degradation 8 weeks” value ([2]; pH 3, Reb D 0.015 % w/w alone) was 22%. The “% Reb D degradation 2 weeks” value [2, 13] was 0%, the “% Reb D degradation 4 weeks” value [2, 13] was 17% and the “% Reb D degradation 6 weeks” value [2, 13] was 20%. For the same molecule, the “% Reb D degradation 8 weeks” value [2, 13] was 23%, the “% Reb D degradation 2 weeks” value ([2]; pH 3, Reb D 0.025 % w/w alone) was 1% and the “% Reb D degradation 4 weeks” value ([2]; pH 3, Reb D 0.025 % w/w alone) was 10%. For the same molecule, the “% Reb D degradation 6 weeks” value ([2]; pH 3, Reb D 0.025 % w/w alone) was 13%, the “% Reb D degradation 8 weeks” value ([2]; pH 3, Reb D 0.025 % w/w alone) was 19% and the “% Reb D degradation 2 weeks” value [2, 14] was 1%. The “% Reb D degradation 4 weeks” value [2, 14] was 14%, the “% Reb D degradation 6 weeks” value [2, 14] was 17% and the “% Reb D degradation 8 weeks” value [2, 14] was 20%. For the same molecule, the “% Reb D degradation 2 weeks” value ([2]; pH 3, Reb D 0.04 % w/w alone) was 0%, the “% Reb D degradation 4 weeks” value ([2]; pH 3, Reb D 0.04 % w/w alone) was 9% and the “% Reb D degradation 6 weeks” value ([2]; pH 3, Reb D 0.04 % w/w alone) was 11%. The “% Reb D degradation 8 weeks” value ([2]; pH 3, Reb D 0.04 % w/w alone) was 18%, the “% Reb D degradation 8 weeks” value ([2]; pH 3.5, Reb D 0.005 % w/w (50 ppm) alone) was 20% and the “% Reb D degradation 2 weeks” value [2, 15] was 1%. For the same molecule, the “% Reb D degradation 4 weeks” value [2, 15] was 10%, the “% Reb D degradation 6 weeks” value [2, 15] was 14% and the “% Reb D degradation 2 weeks” value [2, 16] was 0%. The “% Reb D degradation 4 weeks” value [2, 16] was 6%, the “% Reb D degradation 6 weeks” value [2, 16] was 6% and the “% Reb D degradation 8 weeks” value [2, 16] was 9%. The “% Reb D degradation 2 weeks” value [2, 17] was 0%, the “% Reb D degradation 4 weeks” value [2, 17] was 4% and the “% Reb D degradation 6 weeks” value [2, 17] was 5%. The “% Reb D degradation 8 weeks” value [2, 17] was 8%, the “% Reb D degradation 2 weeks” value [2, 18] was 0% and the “% Reb D degradation 4 weeks” value [2, 18] was 6%. The “% Reb D degradation 6 weeks” value [2, 18] was 8%, the “% Reb D degradation 8 weeks” value [2, 18] was 9% and the “% Reb D degradation 2 weeks” value [2, 19] was 0%. The “% Reb D degradation 4 weeks” value [2, 19] was 2%, the “% Reb D degradation 6 weeks” value [2, 19] was 2% and the “% Reb D degradation 8 weeks” value [2, 19] was 5%. The “% Reb D degradation 2 weeks” value [2, 20] was 1%, the “% Reb D degradation 4 weeks” value [2, 20] was 2% and the “% Reb D degradation 6 weeks” value [2, 20] was 2%. The “% Reb D degradation 8 weeks” value [2, 20] was 5%, the “% Reb D degradation 8 weeks” value ([2]; pH 3.5, Reb D 0.04 % w/w (400 ppm) alone) was 5% and the “% Reb D degradation 2 weeks” value ([2]; pH 3.5, Reb D 0.04 % w/w alone) was 1%. The “% Reb D degradation 4 weeks” value ([2]; pH 3.5, Reb D 0.04 % w/w alone) was 1%, the “% Reb D degradation 6 weeks” value ([2]; pH 3.5, Reb D 0.04 % w/w alone) was 1% and the “stability of Reb D combined with Reb M in a ratio of about 1:1, compared to on its own” value ([2]; pH range 2.0 to 2.5) was “most stable”.
